Measured values: patent US4898940A (priority 1989, dated 1990)
In brackets after ≈: the same amount, converted by molar mass.

What was measured:
[1] = system: Streptococcus faecalis; assay: MIC, serial agar dilution (nutrient agar); type: cell-based; details: Streptococcus faecalis A9612
Excerpt: (§1) Nutrient agar (Eiken) was used for bacteria and Sabouraud dextrose agar (Difco) for fungi. The inoculum size was adjusted to 10^4 CFU/ml for bacteria and 10^5 -10^7 CFU/ml for fungi.

[2] = system: Staphylococcus aureus; assay: MIC, serial agar dilution (nutrient agar); type: cell-based
Excerpt: as §1

[3] = system: Micrococcus luteus; assay: MIC, serial agar dilution (nutrient agar); type: cell-based; details: Micrococcus luteus PCI-1001
Excerpt: as §1

[4] = system: Staphylococcus epidermidis; assay: MIC, serial agar dilution (nutrient agar); type: cell-based
Excerpt: as §1

[5] = system: Pseudomonas aeruginosa; assay: MIC, serial agar dilution (nutrient agar); type: cell-based; details: Pseudomonas aeruginosa A9930
Excerpt: as §1

[6] = system: Serratia marcescens; assay: MIC, serial agar dilution (nutrient agar); type: cell-based; details: Serratia marcescens A20222
Excerpt: as §1

[7] = system: Proteus vulgaris; assay: MIC, serial agar dilution (nutrient agar); type: cell-based; details: Proteus vulgaris A9436
Excerpt: as §1

[8] = system: Enterobacter cloacae; assay: MIC, serial agar dilution (nutrient agar); type: cell-based; details: Enterobacter cloacae A9659
Excerpt: as §1

[9] = system: Proteus mirabilis; assay: MIC, serial agar dilution (nutrient agar); type: cell-based; details: Proteus mirabilis A9554
Excerpt: as §1

[10] = system: Klebsiella pneumoniae; assay: MIC, serial agar dilution (nutrient agar); type: cell-based; details: Klebsiella pneumoniae D-11
Excerpt: as §1

[11] = system: Morganella morganii; assay: MIC, serial agar dilution (nutrient agar); type: cell-based; details: Morganella morganii A9553
Excerpt: as §1

[12] = system: Bacillus subtilis; assay: MIC, serial agar dilution (nutrient agar); type: cell-based; details: Bacillus subtilis PCI-219
Excerpt: as §1

[13] = system: Escherichia coli; assay: MIC, serial agar dilution (nutrient agar); type: cell-based; details: Escherichia coli NIHJ
Excerpt: as §1

[14] = system: Lymphocytic leukemia P388; assay: Antitumor activity against P388 leukemia in mice; type: in vivo, CDF1 and BDF1 mice; details: for T/C % of MST: P388 leukemia, schedule 1 (once daily on days 1, 4 and 7)
Procedure: Lymphocytic leukemia P388 (CDF1 and BDF1 mice) and lymphoid leukemia L1210 (BDF1 mice) were inoculated by intraperitoneal injection of 0.8 ml diluted ascitic fluid containing 10^6 and 10^5 cells per mouse, respectively. Melanotic melanoma B16 (BDF1 mice) were implanted 0.5 ml of a 10% tumor brei intraperitoneally. Test materials were dissolved in 0.9% saline containing 10% dimethyl sulfoxide and graded doses of them were administered to mice intraperitoneally 24 hours after tumor implantation. Either olivomycin (NSC 38270) or mitomycin C was comparatively tested as a reference compound in the experiments.
Values for percentage ratios of 125 and above indicate significant antitumor effect.

[15] = system: Piricularia oryzae; type: cell-based; details: Piricularia oryzae D 91; Sabouraud dextrose agar
[16] = system: pathogenic fungi such as Candida albicans, Cryptococcus neoformans, Aspergillus fumigatus, Trichlophyton mentagrophytes and Mucor spinosus; assay: In vitro antifungal activity; type: cell-based; details: clinically important pathogenic fungi
Excerpt: as §1

[17] = Solubility in solvents; type: physicochemical
[18] = system: gram-positive and gram-negative bacteria; assay: In vitro antibacterial activity; type: cell-based
Excerpt: as §1

[19] = system: Petriellidium boydii; assay: MIC, serial agar dilution (Sabouraud dextrose agar); type: cell-based; details: Petriellidium boydii IFO 8073
Excerpt: as §1

[20] = system: Blastomyces dermaditis; assay: as above; type: cell-based; details: Blastomyces dermaditis IFO 8144
Excerpt: as §1

[21] = system: Trichophyton mentagrophytes; assay: as above; type: cell-based
Excerpt: as §1

[22] = system: Mucor spinosus; assay: as above; type: cell-based; details: Mucor spinosus IFO 5317
Excerpt: as §1

[23] = system: Aspergillus fumigatus; assay: as above; type: cell-based
Excerpt: as §1

[24] = system: Cryptococcus neoformans; assay: as above; type: cell-based
Excerpt: as §1

[25] = system: Sporothrix schenckii; assay: as above; type: cell-based; details: Sporothrix schenckii IFO 8158
Excerpt: as §1

[26] = system: Aspergillus flavus; assay: as above; type: cell-based; details: Aspergillus flavus FA 21436
Excerpt: as §1

[27] = system: Fusarium moniliforme; assay: as above; type: cell-based; details: Fusarium moniliforme A 2284
Excerpt: as §1

[28] = system: Candida albicans; assay: as above; type: cell-based
Excerpt: as §1

Molecule: CCCCCC=CCCC=CC=CC(=O)NC(C(=O)NC1CC(O)CCNC(=O)C=CC(C)NC1=O)C(C)O (centres unmarked) [BU-2867T B]
- MIC [1]: > 50 µg/mL
- MIC ([2]; Staphyloccus aureus Bx-1633): 50 µg/mL (≈ 91.5 µM)
- MIC ([2]; Staphylococcus aureus 209P): 25 µg/mL (≈ 45.7 µM)
- MIC ([2]; Staphylococcus aureus Smith): 3.1 µg/mL (≈ 5.67 µM)
- MIC [3]: 50 µg/mL (≈ 91.5 µM)
- MIC ([4]; Staphylococcus epidermidis A22152): 50 µg/mL (≈ 91.5 µM)
- MIC ([4]; Staphylococcus epidermidis D153): 6.3 µg/mL (≈ 11.5 µM)
- MIC [5]: > 50 µg/mL
- MIC [6]: > 50 µg/mL
- MIC [7]: > 50 µg/mL
- MIC [8]: > 50 µg/mL
- MIC [9]: > 50 µg/mL
- MIC [10]: > 50 µg/mL
- MIC [11]: > 50 µg/mL
- MIC [12]: 50 µg/mL (≈ 91.5 µM)
- MIC [13]: > 50 µg/mL
- T/C % of MST ([14]; 0.3 mg/kg/day ip): 120%
- T/C % of MST ([14]; 1 mg/kg/day ip): 140%
- T/C % of MST ([14]; 3 mg/kg/day ip): 165%
- antitumor activity against P388 leukemia (in words) ([14]; treatment schedule 1 (once daily on days 1, 4 and 7), ip): showed antitumor activity
- MIC [15]: > 50 µg/mL
- antifungal activity (in words) [16]: somewhat less active than component C
- solubility in chloroform, acetonitrile and ethyl acetate [17]: slightly soluble
- solubility in methanol, ethanol, n-butanol and dimethyl sulfoxide [17]: readily soluble
- solubility in n-hexane and water [17]: practically insoluble
- activity against some gram-positive bacteria (in words) [18]: moderate activity
- MIC [19]: > 50 µg/mL
- MIC [20]: 50 µg/mL (≈ 91.5 µM)
- MIC ([21]; Trichophyton mentagrophytes #4329): 12.5 µg/mL (≈ 22.9 µM)
- MIC ([21]; Trichophyton mentagrophytes D 155): 12.5 µg/mL (≈ 22.9 µM)
- MIC [22]: 0.8 µg/mL (≈ 1.46 µM)
- MIC ([23]; Aspergillus fumigatus IAM 2034): 3.1 µg/mL (≈ 5.67 µM)
- MIC ([23]; Aspergillus fumigatus IAM 2530): 31 µg/mL (≈ 56.7 µM)
- MIC ([24]; Cryptococcus neoformans D 49): 25 µg/mL (≈ 45.7 µM)
- MIC ([24]; Cryptococcus neoformans IAM 4514): 25 µg/mL (≈ 45.7 µM)
- MIC [25]: > 50 µg/mL
- MIC [26]: 25 µg/mL (≈ 45.7 µM)
- MIC [27]: > 50 µg/mL
- MIC ([28]; Candida albicans A 9540): 1.6 µg/mL (≈ 2.93 µM)
- MIC ([28]; Candida albicans IAM 4888): 3.1 µg/mL (≈ 5.67 µM)

Molecule: Olivomycin A [reference compound]
- T/C % of MST ([14]; 0.3 mg/kg/day ip): 100%
